Assay results: patent publication US7419984B2, “Pyrimidines and uses thereof” (Cell Therapeutics, Inc., priority 2002, dated 2008)

target: T1, human LPAAT-β (Homo sapiens, UniProt O15120); assay: LPAAT-β cell-free assay; assay type: biochemical; conditions: Sf9 cell membrane overexpressing recombinant LPAAT-β
T1 construct: the full-length human LPAAT-β cDNA was amplified by PCR; poly-histidine tag (N); made in house; host or cells: Sf9 insect cells (baculovirus, pFastBac HTc); the membrane fraction was used as the enzyme
T1 sequence (O15120 24-278): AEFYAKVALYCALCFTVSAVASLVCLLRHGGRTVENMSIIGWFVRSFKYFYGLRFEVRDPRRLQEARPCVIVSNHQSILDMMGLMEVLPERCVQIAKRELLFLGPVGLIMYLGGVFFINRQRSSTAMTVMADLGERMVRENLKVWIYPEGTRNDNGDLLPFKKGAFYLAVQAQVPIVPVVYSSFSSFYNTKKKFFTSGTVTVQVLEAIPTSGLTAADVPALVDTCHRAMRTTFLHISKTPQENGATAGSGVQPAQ
Description: For the construction of Baculovirus expression vectors, the full-length human LPAAT-β cDNA was amplified by PCR from the DNA template pCE9.LPAAT-β (West et al., DNA Cell Bid. 16.691-701 (1997)) using the primers 5′-[…] […] […] […]-3′ (olpb1F; SEQ ID NO:1) and 5′-[…] […] […]-3′ (olpb1R; SEQ ID NO:2). The ˜870 bp fragment generated was reamplified by PCR using the primers 5′ […] […] […] […] ATC-3′ (olpb2F; SEQ ID NO:3) and 5′-[…] […] […]-3′ (olpb1R; SEQ ID NO:2). The ˜890 bp fragment generated was then cleaved with Sal I and Xba I for insertion into pFastBac™ HTc vector (Life Technologies, Gaithersberg, M.d.) between the Sal I and Xba I sites for the generation of the plasmid pFB.LPAAT-β. This plasmid was then transformed into E. coli DH10Bac™ (Life Technologies, Gaithersberg, M.d.) for the generation of recombinant Bacmid DNA for transfection in HighFive (Invitrogen, San Diego, Calif.) or SF9 insect cells for the production of recombinant Baculovirus stocks using the protocol described in the Bac-to-Bac® Baculovirus Expression System (Life Technologies, Gaithersberg, M.d.), a eukaryotic expression system for generating recombinant baculovirus through site-specific transposition in E. coli. Viral stocks harvested from the transfected cells can then be used to infect fresh insect cells for the subsequence expression of LPAAT-β fusion protein with a poly-histidine tag and a myc-epitope near its N-terminus. The membrane fraction from these Sf9 cells would be the source of LPAAT enzyme.
For the preparation of membranes from Sf9 Cells, all steps are performed on ice or at 4° C. Sf9 cell pellets (˜10^8 cells) were thawed and resuspended in 1-2 ml of buffer A (20 mM Hepes, pH 7.5, 1 mM DTT, 1 mM EDTA, 20% w/v glycerol, 1 mM Benzamidine, 1 μg/ml soybean trypsin inhibitor (SBTI), 1 μug/ml pepstatin A) w/o DTT but with 1 mM Pefabloc. The cells were lysed by sonication using a Branson Sonifier at output=2, duty cycle=2, 10 pulses each at 10 s. with the tip of small sonicator probe submerged but not touching the walls. DTT was then added to 1 mM from a 1 M stock. The samples were centrifuged at 1500 rpm for 5 min. The low speed supernatant was saved and centrifuged (TLA 100.3 rotor, polycarbonate tubes, 2 ml/tube or 1.5 ml/tube minimum) at 100000×g for 1 hr. The high speed pellet was resuspend in Buffer A with a probe sonicator (10 pulses @ output #2 and duty cycle 20%) as a source of LPAAT enzyme.
LPAAT-β catalyzes the transfer of an acyl group from a donor such as acyl-CoA to LPA. The transfer of the acyl group from acyl-CoA to LPA leads to the release of free CoA, which can be reacted with the thiol reagent, 5,5′-dithiobis(2-nitrobenzoic acid) (DTNB). The reaction between DTNB and the free sulfhydryl group from CoA generates a yellow-colored product, 3-carboxylato-4-nitrothiophenolate (CNP), that absorbs at 413 nm. LPAAT-β derived from Sf9 cell membrane overexpressing LPAAT-β were resuspended in HEPES saline buffer (20 mM HEPES pH 7.5, 150 mM NaCl), 1 mg/ml BSA and 72 μl aliquots were distributed into 96-well microtiter plates. 8 μl of compound of interest at 200 μM dissolved in 100% DMSO was added into each well. […] of 1 mM 18:1-CoA and 1 mM sn-1-18:1 lysoPA was then added to each well to initiate the reaction and allowed to run at room temperature for 25 min. 100 μl of 1 mM DTNB in 100% ethanol was then added to each well to quench the reaction and for color development. The absorbance at 405 nm, measured using a spectrophotometer plate reader, is proportional to the activity of LPAAT-2 in the sample. This colorimetric assay was used for the high throughput screening of LPAAT inhibitors.
The radiometric assay was carried out in Sf9 cell membrane overexpressing LPAAT-β resuspended in HEPES-saline buffer, pH 7.5, 1 mg/ml BSA, 1 mM EDTA and 200 μM [^14C]18:1-CoA and 200 μM sn-1-18:1 lysoPA.

Compared with CCOc1ccc(Br)cc1-c1cc(Nc2ccc(C(=O)C(F)(F)F)cc2)nc(N)n1 [Example 131, 1-{4-[2-Amino-6-(5-bromo-2-ethoxy-phenyl)-pyrimidin-4-ylamino]-phenyl}-2,2,2-trifluoro-ethanone], CCOc1ccc(Br)cc1-c1cc(Nc2ccc(C(F)(F)F)cc2)nc(N)n1 [Example 60, 6-(5-Bromo-2-ethoxy-phenyl)-N*4*-(4-trifuoromethyl-phenyl)-pyrimidin-2,4-diamine] is 5-fold higher in IC50: 0.012 µM for the first, 0.06 µM for the second. The first is the more potent here.

COc1ccc(Br)cc1-c1cc(Nc2ccc(C(F)(F)F)cc2)nc(N)n1 [Example 150, 6-(5-Bromo-2-methoxy-phenyl)-N*4*-(4-trifluoromethyl-phenyl)-pyrimidine-2,4-diamine] and COc1ccc(Cl)cc1-c1cc(Nc2ccc(C(F)(F)F)cc2)nc(N)n1 [Example 4, 6-(5-Chloro-2-methoxy-phenyl)-N*4*-(4-trifluoromethylphenyl)-pyrimidine-2,4-diamine] are within 1.5-fold of each other in IC50: 0.1 µM for the first, 0.088 µM for the second.

First: Cc1ccc(C)c(-c2cc(Nc3ccc(Cl)cc3)nc(N)n2)c1 [Example 73, N*4*-(4-Chloro-phenyl)-6-(2,5-dimethyl-phenyl)-pyrimidine-2,4-diamine]
Second: Cc1ccc(Cl)cc1-c1cc(Nc2ccc(CCO)cc2)nc(N)n1 [Example 49, 2-{4-[2-Amino-6-(5-chloro-2-methyl-phenyl)-pyrimidin4-ylamino]-phenyl}-ethanol]
The IC50 of the first is 3.3-fold higher: 0.16 µM for the first, 0.049 µM for the second.

Nc1nc(Nc2ccc3cn[nH]c3c2)cc(-c2cc(Cl)ccc2Cl)n1 [Example 19, 6-(2,5-Dichloro-phenyl)-N*4*-(1H-indazol-6-yl)-pyrimidine-2,4-diamine] and Cc1ccc(Cl)cc1-c1cc(Nc2ccc3cn[nH]c3c2)nc(N)n1 [Example 31, 6-(5-Chloro-2-methyl-phenyl)-N*4*-(1H-indazol-6-yl)-pyrimidine-2,4-diamine] are within 1.5-fold of each other in IC50: 0.027 µM for the first, 0.032 µM for the second.

Going from Cc1ccc(Br)cc1-c1cc(Nc2ccc(C#N)cc2)nc(N)n1 [Example 86, 4-[2-Amino-6-(5-bromo-2-methyl-phenyl)-pyrimidin-4-ylamino]-benzonitrile] to Cc1ccc(Br)cc1-c1cc(Nc2ccc(Br)cc2)nc(N)n1 [Example 85, 6-(5-Bromo-2-methyl-phenyl)-N*4*-(4-bromo-phenyl)-pyrimidine-2,4-diamine], the IC50 falls from 0.04 µM to 0.018 µM (2.2-fold). The second is the more potent here.

Going from COc1ccc(Cl)cc1-c1cc(N)nc(Nc2ccc(Cl)cc2)n1 [Example 34, 6-(5-Chloro-2-methoxy-phenyl)-N*2*-(4-chloro-phenyl)-pyrimidine-2,4-diamine] to COc1ccc(Nc2cc(-c3cc(Cl)ccc3OC)nc(N)n2)cc1 [Example 7, 6-(5-Chloro-2-methoxy-phenyl)-N*4*-(4-methoxy-phenyl)-pyrimidine-2,4-diamine], the IC50 falls from 2 µM to 0.41 µM (4.9-fold).

First: CCOc1ccc(Br)cc1-c1cc(Nc2ccc([N+](=O)[O-])cc2)nc(N)n1 [Example 133, 6-(5-Bromo-2-ethoxy-phenyl)-N*4*-(4-nitro-phenyl)-pyrimidine-2,4-diamine]
Second: CCOc1ccc(Br)cc1-c1cc(Nc2ccc(B(O)O)cc2)nc(N)n1 [Example 159, 4-[2-Amino-6-(5-bromo-2-ethoxy-phenyl)-pyrimidin-4-ylamino]-phenyl-boronic acid]
The IC50 of the first is 13-fold lower: 0.015 µM for the first, 0.2 µM for the second.

Compared with COc1ccc(Cl)cc1-c1cc(Nc2ccc([N+](=O)[O-])cc2)nc(N)n1 [Example 11, 6-(5-Chloro-2-methoxy-phenyl)-N*4*-(4-nitro-phenyl)-pyrimidine-2,4-diamine], COc1ccc(Cl)cc1-c1cc(Nc2ccc(CCO)cc2)nc(N)n1 [Example 50, 2-{4-[2-Amino-6-(5-chloro-2-methoxy-phenyl)-pyrimidin-4-ylamino]-phenyl}-ethanol] is 3.3-fold higher in IC50: 0.014 µM for the first, 0.046 µM for the second. The first is the more potent here.

Cc1ccc(Cl)cc1-c1cc(Nc2ccc(CCCCO)cc2)nc(N)n1 [Example 110, 4-{4-[2-Amino-6-(5-Chloro-2-methyl-phenyl)-pyrimidin-4-ylamino]-phenyl}-butan-1-ol] and Cc1ccc(Br)cc1-c1cc(Nc2ccc(CCCCO)cc2)nc(N)n1 [Example 101, 4-{4-[2-Amino-6-(5-bromo-2-methyl-phenyl)-pyrimidin4-ylamino]-phenyl}-butan-1-ol] are within 1.5-fold of each other in IC50: 0.21 µM for the first, 0.29 µM for the second.

Compared with Cc1ccc(F)cc1-c1cc(Nc2ccc(C(F)(F)F)cc2)nc(N)n1 [Example 76, 6-(5-Fluoro-2-methyl-phenyl)-N*4*-(4-trifluoromethyl-phenyl)-pyrimidine-2,4-diamine], CSc1cccc(Nc2cc(-c3cc(Cl)ccc3C)nc(N)n2)c1 [Example 111, 6-(5-Chloro-2-methyl-phenyl)-N*4*-(3-methylsulfanyl-phenyl)-pyrimidine-2,4-diamine] is 2.5-fold lower in IC50: 0.71 µM for the first, 0.28 µM for the second.

Nc1nc(Nc2ccc(Cl)cc2)cc(-c2cc(Cl)ccc2OCc2ccccc2)n1 [Example 155, 6-(2-Benzyloxy-5-chloro-phenyl)-N*4*-(4-chloro-phenyl)-pyrimidine-2,4-diamine] and COc1ccc(COc2ccc(Br)cc2-c2cc(Nc3ccc(Cl)cc3)nc(N)n2)cc1 [Example 185, 6-[5-Bromo-2-(4-methoxy-benzyloxy)-phenyl]-N*4*-(4-chloro-phenyl)-pyrimidine-2,4-diamine] are the same in IC50: 0.004 µM for the first, 0.004 µM for the second.

Going from Nc1nc(Nc2ccc(Cl)cc2)cc(-c2cccc(Cl)c2Cl)n1 [Example 118, 6-(2,3-Dichloro-phenyl)-N*4*-(4-chloro-phenyl)-pyrimidine-2,4-diamine] to Nc1nc(Nc2ccc(CCO)cc2)cc(-c2cc(Cl)ccc2Cl)n1 [Example 48, 2-{4-[2-Amino-6-(2,5-dichloro-phenyl)-pyrimidin4-ylamino]-phenyl}-ethanol], the IC50 falls from 0.71 µM to 0.028 µM (25-fold).

CCOc1ccc(Cl)cc1-c1cc(Nc2ccc(C)cc2)nc(N)n1 [Example 53, 6-(5-Chloro-2-ethoxy-phenyl)-N*4*-p-tolyl-pyrimidine-2,4-diamine] and CCOc1ccc(Cl)cc1-c1cc(Nc2ccc(CO)cc2)nc(NC)n1 [Example 65, {4-[6-(5-Chloro-2-ethoxy-phenyl)-2-methylamino-pyrimidin4-ylamino]-phenyl}-methanol] are within 1.5-fold of each other in IC50: 0.095 µM for the first, 0.14 µM for the second.

Compared with CCOc1ccc(Br)cc1-c1cc(Nc2ccc(CCO)cc2)ncn1 [Example 191, 2-{4-[6-(5-Bromo-2-ethoxy-phenyl)-pyrimidin-4-ylamino]-phenyl}-ethanol], COc1ccc(Br)cc1-c1cc(Nc2ccc(CCO)cc2)nc(N)n1 [Example 151, 2-{4-[2-Amino-6-(5-bromo-2-methoxy-phenyl)-pyrimidin-4-ylamino]-phenyl}-ethanol] is 2.8-fold higher in IC50: 0.02 µM for the first, 0.055 µM for the second.

COc1ccc(Cl)cc1-c1nc(N)nc(Nc2ccc3cn[nH]c3c2)c1Br [Example 52, 5-Bromo-6-(5-chloro-2-methoxy-phenyl)-N*4*-(1H-indazol-6-yl)-pyrimidine-2,4-diamine] showed an IC50 of 0.5 µM.
